Holding throughout (format): cell-based
Series [1] deals with ARPE-19 (human retinal pigment epithelial cell line). Briefly: MTS assay on Pentablock Polymer B, ARPE 19. As to conditions: ARPE 19, Triton X positive control. Here is the method:
The cytotoxicity and biocompatibility of the Pentablock Polymer A and Pentablock Polymer B were investigated in several cell lines. ARPE-19 (human retinal pigment epithelial cell line), SIRC (rabbit corneal cell line), and RAW 264.7 (mouse macrophage cell line) were obtained from American Type Culture Collection (“ATCC”). ARPE-19 cells were cultured in Dubelcco's modified Eagle's medium (“DMEM/F12”) supplemented with 10% fetal bovine serum (“FBS”), 100 U/mL penicillin and 100 μg/mL of streptomycin. SIRC cells were cultured in minimum essential medium (“MEM”) and supplemented with 10% FBS, 100 U/mL of penicillin and 100 μg/mL of streptomycin. RAW 264.7 (Mouse macrophage cells) cells were cultured in DMEM/[…] with 10% FBS, 10% of nonessential amino acids, 100 U/mL penicillin and 100 μg/mL of streptomycin. […] The cell cultures were exposed directly to different concentrations of Pentablock Polymer A and Pentablock Polymer B. Pentablock Polymer B: Cytotoxicity for Pentablock Polymer B was performed at different concentration ranging from 0.5-10 mg/ml. The plates were seeded with cell density of 10,000 cells/100 μL. […] After incubation, the absorbance of each well was measured at 450 nm by ELISA plate reader. The absorbance is directly proportional to viability of cells.

Series [2] deals with RAW 264.7 (mouse macrophage cell line). As to the kind of experiment: MTS assay on Pentablock Polymer A, RAW 264.7. As to conditions: RAW 264.7, Triton X positive control. The protocol: (§1) The cytotoxicity and biocompatibility of the Pentablock Polymer A and Pentablock Polymer B were investigated in several cell lines. ARPE-19 (human retinal pigment epithelial cell line), SIRC (rabbit corneal cell line), and RAW 264.7 (mouse macrophage cell line) were obtained from American Type Culture Collection (“ATCC”). ARPE-19 cells were cultured in Dubelcco's modified Eagle's medium (“DMEM/F12”) supplemented with 10% fetal bovine serum (“FBS”), 100 U/mL penicillin and 100 μg/mL of streptomycin. SIRC cells were cultured in minimum essential medium (“MEM”) and supplemented with 10% FBS, 100 U/mL of penicillin and 100 μg/mL of streptomycin. RAW 264.7 (Mouse macrophage cells) cells were cultured in DMEM/F12supplemented with 10% FBS, 10% of nonessential amino acids, 100 U/mL penicillin and 100 μg/mL of streptomycin. The pH of the medium was adjusted to 7.4 and cells were incubated in humidified atmosphere at 37° C. temperature with 5% CO2 environment. The cell cultures were exposed directly to different concentrations of Pentablock Polymer A and Pentablock Polymer B. […]
(§2) MTS assay is based on the reduction of the tetrazolium salt (yellow) to fromazone (purple) by mitochondrial enzymes of metabolic active cells. […] After incubation, the absorbance of each well was measured at 450 nm by ELISA plate reader. The absorbance is directly proportional to viability of cells.
Background: Tetrazolium assays rely on reduction of a dye to a coloured formazan, in cell work by metabolically active cells.

The subject of series [3] is SIRC (rabbit corneal cell line). Briefly: MTS assay on Pentablock Polymer A, SIRC. The note with it: Triton X positive control. Here is the method: as §1, §2
The test system of series [4] is PCEC. Briefly: MTS assay on Pentablock Polymer B, PCEC. The note with it: Triton X positive control. The protocol:
Pentablock Polymer B: Cytotoxicity for Pentablock Polymer B was performed at different concentration ranging from 0.5-10 mg/ml. The plates were seeded with cell density of 10,000 cells/100 μL. After 24 hours of incubation fresh medium containing hydrogel of different concentration ranging from 0.5-10 mg/ml were added and further incubated for 24 hours. MTS assay is based on the reduction of the tetrazolium salt (yellow) to fromazone (purple) by mitochondrial enzymes of metabolic active cells. The amount of the fromazone is directly proportional to viable cells. In MTS assay Trioton X treated cells were served as […]. […] After incubation, the absorbance of each well was measured at 450 nm by ELISA plate reader. The absorbance is directly proportional to viability of cells.

On to Triton X, for which the “MTS assay (absorbance proportional to viability of cells)” value in series [1] was determined as 0.000; in series [2], 0; in series [3], 0; in series [4] it was 0.000.

Source of the values: patent US9011927B2, “Pentablock polymers” (The Curators of the University of Missouri, priority 2010, dated 2015).
